Results reported in PMC7339168 (Journal of Cellular and Molecular Medicine, 2020).

Columns and labels:
TYK2 = TYK2 (Homo sapiens, UniProt P29597); assay: radiometric KinaseProfiler kinase assay, […] ATP; assay type: biochemical
JAK1 = JAK1 (Homo sapiens, UniProt P23458); assay: radiometric KinaseProfiler kinase assay, […] ATP; assay type: biochemical
JAK3 [1] = molecular target: T1, JAK3 (Homo sapiens, UniProt P52333); assay: radiometric KinaseProfiler assay with ATP titration (Ki; IC50 […]); also JAK3 immunoprecipitate kinase assay; assay type: biochemical
T1 sequence (P52333 1-1124): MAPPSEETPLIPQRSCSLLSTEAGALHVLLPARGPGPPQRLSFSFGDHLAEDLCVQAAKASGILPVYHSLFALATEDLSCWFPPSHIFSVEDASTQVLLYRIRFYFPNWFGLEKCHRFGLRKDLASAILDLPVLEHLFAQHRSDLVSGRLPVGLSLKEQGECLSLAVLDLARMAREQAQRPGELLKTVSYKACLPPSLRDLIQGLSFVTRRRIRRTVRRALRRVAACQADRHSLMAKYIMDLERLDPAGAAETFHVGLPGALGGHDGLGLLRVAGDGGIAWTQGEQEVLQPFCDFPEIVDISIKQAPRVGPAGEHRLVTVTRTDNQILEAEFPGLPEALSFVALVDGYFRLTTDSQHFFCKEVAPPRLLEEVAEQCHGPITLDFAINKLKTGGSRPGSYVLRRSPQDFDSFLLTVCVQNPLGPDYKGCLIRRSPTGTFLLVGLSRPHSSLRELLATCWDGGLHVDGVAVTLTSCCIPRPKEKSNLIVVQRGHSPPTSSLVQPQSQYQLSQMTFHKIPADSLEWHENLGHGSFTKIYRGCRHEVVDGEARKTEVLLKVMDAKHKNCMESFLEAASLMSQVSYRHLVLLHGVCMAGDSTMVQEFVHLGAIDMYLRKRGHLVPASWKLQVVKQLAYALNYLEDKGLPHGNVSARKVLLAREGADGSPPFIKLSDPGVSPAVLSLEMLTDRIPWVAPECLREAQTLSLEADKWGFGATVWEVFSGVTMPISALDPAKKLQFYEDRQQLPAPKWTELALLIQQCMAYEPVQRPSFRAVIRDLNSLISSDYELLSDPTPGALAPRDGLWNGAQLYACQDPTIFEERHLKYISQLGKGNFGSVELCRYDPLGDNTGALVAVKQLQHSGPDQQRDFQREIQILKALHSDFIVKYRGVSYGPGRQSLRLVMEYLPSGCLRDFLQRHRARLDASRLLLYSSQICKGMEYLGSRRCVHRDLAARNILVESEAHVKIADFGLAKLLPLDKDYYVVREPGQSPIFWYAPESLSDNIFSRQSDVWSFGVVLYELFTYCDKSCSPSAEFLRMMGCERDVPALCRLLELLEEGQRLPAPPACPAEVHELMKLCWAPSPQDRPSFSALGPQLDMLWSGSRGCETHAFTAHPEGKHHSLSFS

JAK2 = JAK2 (Homo sapiens, UniProt O60674); assay: radiometric KinaseProfiler kinase assay, […] ATP; assay type: biochemical
JAK2, sequence (O60674 whole entry): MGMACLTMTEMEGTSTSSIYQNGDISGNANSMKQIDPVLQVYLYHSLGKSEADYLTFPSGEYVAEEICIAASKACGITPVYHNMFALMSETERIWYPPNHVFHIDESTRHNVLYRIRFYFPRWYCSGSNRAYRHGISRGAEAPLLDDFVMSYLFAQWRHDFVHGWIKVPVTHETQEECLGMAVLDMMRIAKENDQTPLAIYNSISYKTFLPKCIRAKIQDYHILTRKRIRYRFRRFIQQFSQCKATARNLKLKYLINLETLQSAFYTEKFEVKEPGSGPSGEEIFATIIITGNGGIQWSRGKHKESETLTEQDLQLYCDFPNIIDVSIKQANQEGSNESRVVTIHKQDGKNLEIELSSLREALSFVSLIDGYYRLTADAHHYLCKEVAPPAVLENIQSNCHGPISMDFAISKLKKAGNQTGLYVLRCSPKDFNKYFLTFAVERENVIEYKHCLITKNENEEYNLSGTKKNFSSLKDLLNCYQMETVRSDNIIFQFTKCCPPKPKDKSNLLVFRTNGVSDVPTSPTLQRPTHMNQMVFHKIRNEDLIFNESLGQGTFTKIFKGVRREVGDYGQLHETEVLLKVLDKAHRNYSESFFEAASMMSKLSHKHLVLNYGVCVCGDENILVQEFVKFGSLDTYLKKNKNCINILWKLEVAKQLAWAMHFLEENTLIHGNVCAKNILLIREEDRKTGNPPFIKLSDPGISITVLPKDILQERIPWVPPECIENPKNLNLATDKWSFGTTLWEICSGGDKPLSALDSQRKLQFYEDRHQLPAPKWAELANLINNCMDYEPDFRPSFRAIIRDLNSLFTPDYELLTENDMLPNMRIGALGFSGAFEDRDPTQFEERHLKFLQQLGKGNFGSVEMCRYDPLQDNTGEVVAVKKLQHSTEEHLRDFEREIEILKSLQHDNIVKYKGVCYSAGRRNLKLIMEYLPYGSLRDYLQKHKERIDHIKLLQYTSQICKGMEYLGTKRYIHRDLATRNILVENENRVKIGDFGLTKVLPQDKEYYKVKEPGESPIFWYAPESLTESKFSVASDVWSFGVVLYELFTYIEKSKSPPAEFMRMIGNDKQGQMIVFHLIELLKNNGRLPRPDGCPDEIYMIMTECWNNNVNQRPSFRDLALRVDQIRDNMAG

JAK3 [2] = molecular target: T1, JAK3; assay: KinaseProfiler kinase assay, positive control; assay type: biochemical
JAK3 [3] = molecular target: T1, JAK3

TYK2, sequence (P29597 whole entry): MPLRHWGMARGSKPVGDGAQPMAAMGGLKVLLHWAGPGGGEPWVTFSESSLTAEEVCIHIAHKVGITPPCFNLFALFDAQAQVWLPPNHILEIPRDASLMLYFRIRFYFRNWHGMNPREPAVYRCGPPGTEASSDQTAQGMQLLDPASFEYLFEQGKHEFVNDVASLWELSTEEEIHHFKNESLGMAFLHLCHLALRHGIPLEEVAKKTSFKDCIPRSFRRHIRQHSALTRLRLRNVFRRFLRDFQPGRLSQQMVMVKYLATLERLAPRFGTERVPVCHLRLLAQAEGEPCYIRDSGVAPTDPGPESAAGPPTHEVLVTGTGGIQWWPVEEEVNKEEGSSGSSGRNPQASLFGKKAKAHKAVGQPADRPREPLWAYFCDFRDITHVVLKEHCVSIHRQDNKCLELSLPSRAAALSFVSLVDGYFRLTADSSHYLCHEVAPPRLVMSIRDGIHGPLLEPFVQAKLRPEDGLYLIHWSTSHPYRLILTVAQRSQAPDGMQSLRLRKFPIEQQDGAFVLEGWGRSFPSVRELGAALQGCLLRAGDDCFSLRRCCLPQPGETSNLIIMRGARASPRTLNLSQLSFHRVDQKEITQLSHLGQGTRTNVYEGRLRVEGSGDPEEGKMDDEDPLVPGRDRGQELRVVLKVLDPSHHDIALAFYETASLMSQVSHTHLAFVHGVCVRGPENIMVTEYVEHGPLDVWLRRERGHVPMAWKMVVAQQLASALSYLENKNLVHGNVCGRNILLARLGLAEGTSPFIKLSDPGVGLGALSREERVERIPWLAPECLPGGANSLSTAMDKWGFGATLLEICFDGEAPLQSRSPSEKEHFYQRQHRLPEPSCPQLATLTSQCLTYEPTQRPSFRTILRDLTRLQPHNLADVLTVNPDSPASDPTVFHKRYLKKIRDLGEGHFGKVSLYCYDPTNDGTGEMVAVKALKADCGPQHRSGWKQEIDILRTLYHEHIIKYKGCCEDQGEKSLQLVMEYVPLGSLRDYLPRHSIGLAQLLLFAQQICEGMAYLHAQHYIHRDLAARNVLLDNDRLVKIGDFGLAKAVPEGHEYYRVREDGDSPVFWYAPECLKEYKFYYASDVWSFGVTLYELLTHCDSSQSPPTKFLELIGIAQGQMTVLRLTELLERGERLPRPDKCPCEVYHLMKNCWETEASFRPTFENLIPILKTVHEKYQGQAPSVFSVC
JAK1, sequence (P23458 whole entry): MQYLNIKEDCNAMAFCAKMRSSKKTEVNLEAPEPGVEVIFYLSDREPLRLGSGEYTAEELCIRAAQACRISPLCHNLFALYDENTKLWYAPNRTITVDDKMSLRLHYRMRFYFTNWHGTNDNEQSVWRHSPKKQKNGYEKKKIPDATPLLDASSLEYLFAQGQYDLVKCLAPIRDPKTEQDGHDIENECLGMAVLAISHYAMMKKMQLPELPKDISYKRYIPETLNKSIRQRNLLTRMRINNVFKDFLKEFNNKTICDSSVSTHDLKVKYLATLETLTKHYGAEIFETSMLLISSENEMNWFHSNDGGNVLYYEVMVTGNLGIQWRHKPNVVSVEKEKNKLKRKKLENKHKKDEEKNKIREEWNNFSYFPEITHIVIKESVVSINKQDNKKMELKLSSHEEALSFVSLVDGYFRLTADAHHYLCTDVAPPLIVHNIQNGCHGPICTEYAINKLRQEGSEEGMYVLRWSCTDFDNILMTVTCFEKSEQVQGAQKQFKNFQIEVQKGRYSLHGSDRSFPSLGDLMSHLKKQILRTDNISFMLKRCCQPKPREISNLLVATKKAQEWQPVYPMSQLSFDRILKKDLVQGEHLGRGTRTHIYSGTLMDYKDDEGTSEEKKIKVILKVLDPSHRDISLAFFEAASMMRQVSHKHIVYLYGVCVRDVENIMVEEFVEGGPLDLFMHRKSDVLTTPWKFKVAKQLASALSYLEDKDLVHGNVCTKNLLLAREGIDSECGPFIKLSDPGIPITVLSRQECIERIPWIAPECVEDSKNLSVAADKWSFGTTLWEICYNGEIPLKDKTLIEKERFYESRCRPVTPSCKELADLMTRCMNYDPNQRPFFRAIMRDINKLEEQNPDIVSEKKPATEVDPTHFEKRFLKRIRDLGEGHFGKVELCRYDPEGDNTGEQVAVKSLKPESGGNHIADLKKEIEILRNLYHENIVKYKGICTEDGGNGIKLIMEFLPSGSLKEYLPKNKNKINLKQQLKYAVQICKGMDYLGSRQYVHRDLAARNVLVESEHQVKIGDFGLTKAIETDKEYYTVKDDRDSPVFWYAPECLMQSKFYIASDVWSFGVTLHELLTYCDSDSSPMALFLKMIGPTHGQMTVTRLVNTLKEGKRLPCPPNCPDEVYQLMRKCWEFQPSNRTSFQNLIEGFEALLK

## CC[C@H]1CN2CCc3cc(OC)c(OC)cc3[C@@H]2C[C@@H]1C[C@H]1NCCc2c1[nH]c1ccc(O)cc21 [tubulosine]
TYK2
  IC50: 76.3 nM
JAK1
  IC50: 69.5 nM
JAK3 [1]
  Ki: 12.9 ± 1.3 nM
JAK2
  IC50: 84.9 nM

## CN[C@@H]1C[C@H]2O[C@@](C)([C@@H]1OC)n1c3ccccc3c3c4c(c5c6ccccc6n2c5c31)C(=O)NC4 [staurosporine]
JAK3 [2]
  KinaseProfiler kinase assay, positive control: Staurosporine was used as a positive control for ATP‐competitive inhibition of JAKs

## Nc1ncnc2c1ncn2[C@@H]1O[C@H](COP(=O)(O)OP(=O)(O)OP(=O)(O)O)[C@@H](O)[C@H]1O [ATP]
JAK3 [3]
  Km: 212 ± 25.7 µM
